Measured values from ChEMBL document CHEMBL4665622, “Repurposing ibuprofen to control Staphylococcus aureus biofilms” (2019).
In brackets after ≈: the same amount, converted by molar mass.

Key:
Staphylococcus aureus [1] = test: Antibacterial activity against Staphylococcus aureus assessed as reduction in bacterial growth incubated for 24 hrs by broth microdilution method; format: functional
Staphylococcus aureus [2] = test: Antibacterial activity against Staphylococcus aureus assessed as reduction in bacterial growth at pH 5 incubated for 24 hrs by broth microdilution method; format: functional
Cell membrane [3] = test: Effect on surface tension of Staphylococcus aureus CECT 976 assessed as electron acceptor component at MIC incubated for 1 hr (reference value: 0.5 +/- 0.1 mJ/m2); format: subcellular
Cell membrane [4] = test: Disruption of cytoplasmic membrane integrity in Staphylococcus aureus CECT 976 assessed as potassium ion release at MIC incubated for 1 hr by flame emission and atomic absorption spectroscopy (reference value: 0 mg/L); format: subcellular
Staphylococcus aureus [5] = test: Antibiofilm activity against Staphylococcus aureus SA1199B preform-matured biofilm assessed as increase in biofilm removal at 5 and 10 times of MIC incubated upto 24 hrs relative to control; format: functional; conditions: time hrs <=24
Staphylococcus aureus [6] = test: Antibiofilm activity against Staphylococcus aureus RN4220 preform-matured biofilm assessed as reduction in CFU per cm2 at 10 times of MIC incubated upto 24 hrs; format: functional; conditions: time hrs <=24
Cell membrane [7] = test: Effect on surface tension of Staphylococcus aureus CECT 976 assessed as Lifshitz-van der Waals at 0.5 times of MIC incubated for 1 hr (reference value: 40.5 +/- 0.0 mJ/m2); format: subcellular
Cell membrane [8] = test: Effect on surface tension of Staphylococcus aureus CECT 976 assessed as Lewis acid-base at 0.25 times of MIC incubated for 1 hr (reference value: 10.5 +/- 1.3 mJ/m2); format: subcellular
Cell membrane [9] = test: Disruption of cytoplasmic membrane integrity in Staphylococcus aureus CECT 976 assessed as potassium ion release at 0.25 times of MIC incubated for 1 hr by flame emission and atomic absorption spectroscopy (reference value: 0 mg/L); format: subcellular
Cell membrane [10] = test: Effect on surface tension of Staphylococcus aureus CECT 976 assessed as hydrophobicity at 0.25 times of MIC incubated for 1 hr (reference value: 34.8 +/- 1.3 mJ/m2); format: subcellular
Staphylococcus aureus [11] = test: Antibiofilm activity against Staphylococcus aureus CECT 976 preform-matured biofilm assessed as increase in biofilm removal at 5 times of MIC incubated for 6 hrs relative to control; format: functional
Staphylococcus aureus [12] = test: Antibiofilm activity against Staphylococcus aureus RN4220 preform-matured biofilm assessed as increase in biofilm inactivation upto 10 times of MIC incubated upto 24 hrs relative to control; format: functional; conditions: time hrs <=24
Staphylococcus aureus [13] = test: Antibiofilm activity against Staphylococcus aureus RN4220 preform-matured biofilm assessed as increase in biofilm removal at MIC incubated upto 24 hrs relative to control; format: functional; conditions: time hrs <=24
Staphylococcus aureus [14] = test: Antibiofilm activity against Staphylococcus aureus CECT 976 preform-matured biofilm assessed as increase in biofilm inactivation at upto 10 times of MIC incubated upto 24 hrs relative to control; format: functional; conditions: time hrs <=24
Staphylococcus aureus [15] = test: Antibiofilm activity against Staphylococcus aureus CECT 976 preform-matured biofilm assessed as increase in biofilm removal at upto 10 times of MIC incubated for 24 hrs; format: functional, organism-based; conditions: time 1.0 hrs
Staphylococcus aureus [16] = test: Antibiofilm activity against Staphylococcus aureus XU212 preform-matured biofilm assessed as increase in biofilm inactivation upto 10 times of MIC incubated upto 24 hrs relative to control; format: functional; conditions: time hrs <=24
Staphylococcus aureus [17] = test: Antibacterial activity against Staphylococcus aureus assessed as reduction in bacterial growth at pH 6 incubated for 24 hrs by broth microdilution method; format: functional
Cell membrane [18] = test: Disruption of cytoplasmic membrane integrity in Staphylococcus aureus CECT 976 assessed as potassium ion release at MBC incubated for 1 hr by flame emission and atomic absorption spectroscopy (reference value: 0 mg/L); format: subcellular
Cell membrane [19] = test: Destabilization of cytoplasmic membrane integrity in Staphylococcus aureus CECT 976 at 0.5 times of MIC incubated for 1 hr by epifluorescence microscope analysis (reference value: 10.6 %); format: subcellular
Escherichia coli = test: Inhibition of biofilm formation in Escherichia coli incubated for 24 hrs by crystal violet staining based assay relative to control; format: functional
Staphylococcus aureus [20] = test: Antibiofilm activity against Staphylococcus aureus SA1199B preform-matured biofilm assessed as increase in biofilm removal at MIC incubated upto 24 hrs relative to control; format: functional; conditions: time hrs <=24
Staphylococcus aureus [21] = test: Bactericidal activity against Staphylococcus aureus CECT 976 incubated for 24 hrs by broth microdilution method; format: functional
Cell membrane [22] = test: Effect on surface tension of Staphylococcus aureus CECT 976 assessed as Lifshitz-van der Waals at 0.25 times of MIC incubated for 1 hr (reference value: 40.5 +/- 0.0 mJ/m2); format: subcellular
Cell membrane [23] = test: Effect on surface tension of Staphylococcus aureus CECT 976 assessed as electron donor component at MIC incubated for 1 hr (reference value: 55 +/- 0.9 mJ/m2); format: subcellular
Cell membrane [24] = test: Effect on surface tension of Staphylococcus aureus CECT 976 assessed as Lewis acid-base at MIC incubated for 1 hr (reference value: 10.5 +/- 1.3 mJ/m2); format: subcellular
Staphylococcus aureus [25] = test: Inhibition of cell adhesion in Staphylococcus aureus CECT 976 assessed as decrease in biomass content incubated upto 24 hrs; format: functional, organism-based; conditions: time hrs <=24
Cell membrane [26] = test: Destabilization of cytoplasmic membrane integrity in Staphylococcus aureus CECT 976 at 0.25 times of MIC incubated for 1 hr by epifluorescence microscope analysis (reference value: 10.6 %); format: subcellular
Cell membrane [27] = test: Disruption of cytoplasmic membrane integrity in Staphylococcus aureus CECT 976 assessed as potassium ion release at 0.5 times of MIC incubated for 1 hr by flame emission and atomic absorption spectroscopy (reference value: 0 mg/L); format: subcellular
Cell membrane [28] = test: Effect on surface tension of Staphylococcus aureus CECT 976 assessed as hydrophobicity at 0.5 times of MIC incubated for 1 hr (reference value: 34.8 +/- 1.3 mJ/m2); format: subcellular
Staphylococcus aureus [29] = test: Antibiofilm activity against Staphylococcus aureus CECT 976 preform-matured biofilm assessed as increase in biofilm removal at MIC incubated for 6 hrs relative to control; format: functional
Staphylococcus aureus [30] = test: Antibiofilm activity against Staphylococcus aureus SA1199B preform-matured biofilm assessed as reduction in CFU at 5 and 10 times of MIC incubated upto 24 hrs relative to control; format: functional; parameters: scale not given: the % may be the effect or the level left; conditions: time hrs <=24

- MIC (Staphylococcus aureus [1]): 1250 µg/mL (≈ 6.06 mM)
- MIC (Staphylococcus aureus [2]): 40 µg/mL (≈ 0.194 mM)
- Activity (Cell membrane [3]): 1.7 mJ/m2
- Activity (Cell membrane [4]): 0.49 mg/L
- Activity (Cell membrane [7]): 37.3 mJ/m2
- Activity (Cell membrane [8]): 11.7 mJ/m2
- Activity (Cell membrane [9]): 0.51 mg/L
- Activity (Cell membrane [10]): 27.3 mJ/m2
- MIC (Staphylococcus aureus [17]): 350 µg/mL (≈ 1.7 mM)
- Activity (Cell membrane [18]): 0.54 mg/L
- Activity (Cell membrane [19]): 99.8%
- Activity (Cell membrane [22]): 39.5 mJ/m2
- Activity (Cell membrane [23]): 50 mJ/m2
- Activity (Cell membrane [24]): 12.5 mJ/m2
- Activity (Cell membrane [26]): 99.1%
- Activity (Cell membrane [27]): 0.51 mg/L
- Activity (Cell membrane [28]): 27.9 mJ/m2
Compound: CC(C)Cc1ccc(C(C)C(=O)O)cc1 (stereo unspecified) [IBUPROFEN]
- Activity (Staphylococcus aureus [5]): 0%
- Activity (Staphylococcus aureus [6]): 2.5 log10CFU
- inhibition (INH) (Staphylococcus aureus [11]): 42%
- Activity (Staphylococcus aureus [12]): <=55%
- Activity (Staphylococcus aureus [13]): <=14%
- inhibition (INH) (Staphylococcus aureus [14]): <=80%
- inhibition (Staphylococcus aureus [15]): Dose-dependent effect
- Activity (Staphylococcus aureus [16]): <=55%
- inhibition (INH) (Escherichia coli): 37%
- Activity (Staphylococcus aureus [20]): <=14%
- MBC (Staphylococcus aureus [21]): 1400 µg/mL (≈ 6.79 mM)
- inhibition (Staphylococcus aureus [25]): Dose-dependent effect
- inhibition (INH) (Staphylococcus aureus [29]): 42%
- Activity (Staphylococcus aureus [30]): 100%
